Measurements as given in article PMC12744750 (Plant Communications, 2025).

What was measured:
ETR1 = assay: Yeast 2-hybrid PLS-ETR1; type: binding, Arabidopsis; details: preliminary yeast 2-hybrid, YRG-2 strain
Method: The GAL4 2-hybrid phagemid vector system was used to detect protein–protein interactions in vivo in yeast, using the reporter genes β-galactosidase (lacZ) and histidine (HIS3) in the YRG-2 yeast strain, essentially as described previously ([Zhong et al., 2008]). DNA sequences encoding the target (ETR1) and bait (PLS) were inserted into the pAD-GAL4-2.1 A and pBD-GAL4 Cam phagemid vectors, respectively, and expressed as hybrid proteins. The hybrid proteins were then assayed for protein–protein interaction.
DNA sequences encoding the target and bait proteins were prepared by PCR amplification using primers designed specifically for the target (ETR1) and bait (PLS). Each set of primers contained specific endonuclease recognition sites on the ends corresponding to the restriction sites in the MCS of the pAD-GAL4-2.1 A and pBD-GAL4 Cam phagemid vectors. The DNA constructs for the target (ETR1) and bait (PLS) with specific restriction sites on the ends were then transformed into the TOPO 2.1 vector, and the sequence of the amplified DNA was confirmed by sequencing with M13 forward (CTG GCC GTC GTT TTA C) and M13 reverse (CAG GAA ACA GCT ATG AC) primers. […] The DNA sequences encoding the target (ETR1) and bait (PLS) were then ligated into the same reading frame as the GAL4 AD of the pAD-GAL4-2.1 phagemid vector and the GAL4 BD of the pBD-GAL4 Cam phagemid vector. […]

[1] = Solubility during Cu(I) titration; type: physicochemical; details: strictly anaerobic conditions
Method: All Cu(I) titration experiments were carried out in an anaerobic chamber (Belle Technology) using metal-free CHELEX-treated, degassed buffers. For titration experiments with Cu(I), aqueous CuSO4 stock was quantified in advance by ICP–MS and diluted to working concentrations. The reductant NH2OH was included at a final concentration of 1 mM to maintain Cu(I) in its reduced state. Proteins were diluted in buffer to the final concentration specified in each titration in air-tight quartz cuvettes (Helma), and after addition of probe to the concentration specified, titrated with CuSO4. After each addition, solutions were thoroughly mixed and absorbance spectra recorded using a Lambda 35 UV/Vis spectrophotometer (PerkinElmer). Titration isotherm data were fitted using simulated affinity curves with DynaFit ([Kuzmič, 2009]).

ETR1^306-738 = target: T1, ETR1^306-738 (Arabidopsis thaliana, UniProt P49333); assay: Microscale thermophoresis, PLS binding to ETR1 lacking the transmembrane domain; details: MST, as full-length; ETR1^306-738 lacking N-terminal transmembrane domain; listed as PLS
T1 construct: made in house
T1 sequence (P49333 306-738): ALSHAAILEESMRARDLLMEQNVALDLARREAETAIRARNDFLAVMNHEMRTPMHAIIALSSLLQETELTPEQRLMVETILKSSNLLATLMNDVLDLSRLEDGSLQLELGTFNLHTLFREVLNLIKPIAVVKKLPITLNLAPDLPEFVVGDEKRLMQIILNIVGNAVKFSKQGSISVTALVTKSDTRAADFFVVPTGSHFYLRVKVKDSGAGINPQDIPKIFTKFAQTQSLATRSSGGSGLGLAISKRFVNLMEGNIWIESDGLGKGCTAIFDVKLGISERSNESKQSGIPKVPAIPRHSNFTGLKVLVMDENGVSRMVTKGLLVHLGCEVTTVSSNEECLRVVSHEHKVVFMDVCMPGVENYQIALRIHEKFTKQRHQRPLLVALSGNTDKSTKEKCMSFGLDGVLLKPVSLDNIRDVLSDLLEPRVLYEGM
Method: Fluorescently labeled ETR1 truncation mutants ([Milić et al., 2018]) were added to a dilution series of synthetic PLS in 50 mM HEPES, 150 mM NaCl, and 0.015% (w/v) FosCholine 16 (pH 7.6) or 50 mM Tris, 300 mM NaCl, and 0.015% (w/v) FosCholine 16 (pH 7.6). Dissociation constants were calculated using GraphPad Prism 5.
Full-length ETR1 and its truncation mutants were purified and labeled as described previously ([Milić et al., 2018]). Synthetic PLS (94 μM) was diluted serially in 50 mM Tris and 300 mM NaCl (pH 7.6). Fluorescently labeled receptor was added at a final concentration of 50 nM. Thermophoretic behavior was measured in premium capillaries at 50% LED and 50% microscale thermophoresis power. In case of a binding event, data were fitted using GraphPad Prism 5.

[2] = Titration of PLS in the presence of BCA2-Cu(I) complex; type: binding; details: PLS serially diluted from 496 µM to 214 nM; 125 µM BCA, 50 µM CuCl, 50 mM HEPES, 150 mM NaCl, 20 mM ascorbate, pH 7.6; A562 nm, n = 3
Method: Figure S9. Titration of PLS in the presence of BCA2-Cu(I)-Complex.
A solution of synthetic PLS in 50 µl buffer (50 mM HEPES, 150 mM NaCl, pH 7.6) was serially diluted from 496 µM to 214 nM. After the addition of 50 µl BCA2-Cu(I) buffer (50 mM HEPES, 150 mM NaCl, 20 mM ascorbate, 125 µM BCA, 50 µM CuCl, pH 7.6) the absorbance at 562 nm was measured. Discoloration of the pink BCA2-Cu(I) complex visible in the decrease of absorption at higher peptide concentration indicates […]
chelator BCA. Bars represent means ± SD, n = 3.
(1 picture or pasted object on this page, not shown here)

PLS(FL): full-length 36-amino-acid PLS peptide from Arabidopsis (MKPRLCFNFRRRSISPCYISISYLLVAKLFKLFKIH)
interaction with ETR1 (ETR1): interacts with ETR1
solubility [1]: problems with PLS solubility
binding (dissociation constant) (ETR1^306-738): no binding was detected
competition for copper with BCA [2]: able to effectively compete and remove copper
